The values that follow come from patent US20240101685A1, “NEAR INFRARED PHOTOIMMUNOTHERAPY (NIR-PIT) COMBINATION THERAPY TO TREAT CANCER” (THE UNITED STATES OF AMERICA, as represented by the …, priority 2021, published 2024).

The conditions of series [1]: IR700 at 689 nm; Photofrin 630 nm; Foscan 652 nm; NPe6/Laserphyrin 654 nm; cited from earlier work.
Another series deals with MOC2-luc tumors. Put plainly: CD44-targeted NIR-PIT with or without L-NaAA.
The next series deals with MDAMB468 GFP-luc cells. Description: In vitro NIR-PIT with reducing agents, PI staining. The note with it: 10 mM NaN3.
The subject of series [2] is MC38-luc tumors. How it is done: ROIs were placed over the entire tumor. […] (A) Treatment schedule.
(§1) The images were taken pre- and post-NIR-PIT. ROIs were placed on the tumor. […] ROIs were placed over the entire tumor.
Scout images were obtained to accurately locate the tumor.
Single-cell suspensions from tumor samples were pre-pared using following protocol. Whole tumors were incubated in the RPMI 1640 medium (Thermo Fisher Scientific) containing collagenase type IV (1 mg mL^−1; Thermo Fisher Scientific) and DNase I (20 μg mL^−1; Millipore Sigma, Burlington, MA) in 37° C. for 30 minutes, then gently cut with scissors and mashed with the back of the plunger of 3 mL syringe. The tissues were passed through a 70 μm cell strainer (Corning, Corning, NY). A total of 3.0×10^6 cells was stained and data for 5.0×10^5 cells were collected for each tumor. The cells were stained with anti-CTLA4 antibody (Clone; UC10-4B9) from Thermo Fisher Scientific. To distinguish live cells from dead cells, cells were also stained with LIVE/DEAD Fixable Dead Cell Stain (Thermo Fisher Scientific). The fluorescence of the cells was then analyzed with the flow cytometer (FACSLyric, BD Biosciences) and FlowJo software (FlowJo LLC). Dead cells were removed from analysis based on FSC, SSC, and staining with LIVE/DEAD Fixable Dead Cell Stain.

For the next series, the system named is A431 GFP-luc tumor. Put plainly: Panitumumab NIR-PIT with or without L-NaAA. The series is classed as in vivo, athymic mice. The conditions noted are these: with L-NaAA.
From the text: as §1

Series [3] has as its system MC38-luc tumors. Description: CD44-targeted NIR-PIT with or without L-NaAA.
Protocol: Photon counts were evaluated with the Photon Imager (Biospace Lab) using relative light units. ROIs were placed over the entire tumor. The counts per minute of relative light units were calculated using M3 Vision Software (Biospace Lab) and converted to the percentage based on those before NIR-PIT using the following formula: [(relative light units after treatment)/(relative light units before treatment)×100(%)]. Chemiluminescent images were continually recorded 1 and 3 hours after NIR-PIT.
(§2) The APC was injected 6 days after inoculation of cancer cells into C57BL/6 mice. […] NIR light (690 nm, 150 mW cm-2, 50 J cm-2) was exposed on the next day. […] Upon NIR light exposure, the normal tissue adjacent to the tumor was covered with aluminum foil to ensure that the NIR light exposure is limited in tumor site. Dorsal fluorescence images of IR700 were obtained with the 700 nm fluorescence channel of the Pearl Imager (LI-COR Biosciences). The images were taken pre- and post-NIR-PIT. ROIs were placed on the tumor. The dorsal edema formation of treated mouse 1 day after NIR light irradiation was imaged by a camera. Acute treatment efficacy was evaluated with BLI analysis, in which, D-luciferin (3 mg mouse-1; Gold Biotechnology) was intraperitoneally injected into mice. Luciferase activity was analyzed with a BLI system (Biospace Lab) using relative light units. ROIs were placed over the entire tumor. The counts per minute of relative light units were calculated using M3 Vision Software (Biospace Lab) and converted to the percentage based on those before NIR-PIT using the following formula: [(relative light units after treatment)/(relative light units before treatment)×100(%)]. Bioluminescence im-ages were continually recorded until the onset of depilation-induced skin pigmentation precluded accurate measurement.
Under pentobarbital anesthesia, MRI was performed on a 3-T scanner using an in-house 10-inch circle shaped mouse receiver coil array (Elition 3T; Philips Medical Systems, Best, Nether-lands) 1 day after NIR light exposure. Scout images were obtained to accurately locate the tumor. All mice underwent T2-weighted fat-saturation imaging (T2WI fat-sat) and short-TI inversion recovery imaging (STIR). All images were obtained in the coronal plane and T2WI fat-sat images were also obtained in the axial plane. All images were analyzed using Image J software, and 3D imaging were recon-structed. The high signal intensity area derived from each image in T2WI fat-sat and STIR was calculated by Image J.
The next series has as its system LL/2-luc tumors. Put plainly: CD44-targeted NIR-PIT with or without L-NaAA. Format: in vivo, C57BL/6 mice.
From the text: as §1

A further series concerns MC38-luc tumor. Put plainly: In vivo efficacy of L-NaAA alone. Set-up: species or system mice.
For another series, the system named is A431 GFP-luc cells. Description: In vitro NIR-PIT with reducing agents, PI staining. The note with it: for cytotoxicity of Pan-PIT in the presence of NaN3: 10 mM NaN3.
The conditions of series [4]: IR700 with L-cysteine, NaN3 added.
The procedure of series [5]: Before and after each irradiation, the 700 nm fluorescence intensity was acquired by a fluorescence imager (Pearl Imager, LI-COR Bioscience, Lincoln, NE, USA). Pearl Cam Software (LI-COR Biosciences) was used for analyzing fluorescence. The same regions of interest (ROIs) were put on the solution in each tube, and then mean 700 nm fluorescence intensity was measured. The appearance of the tube before and after NIR light irradiation was imaged. All the experiments were carried out at RT.

In another series the test system is LL2-luc tumor. The note with it: IL15 1 ug i.p. preconditioning + anti-PD-L1-IR700 + NIR light 50 J/cm2.
The conditions of series [6]: dose of 3 mg/kg for melanoma therapy; cited from earlier work.
The test system of a further series is mEERL-hEGFR cells. Description: In vitro NIR-PIT, PI staining and MTT assay. The series is classed as cell-based, murine. As for the experimental part:
After washing with PBS, phenol-red-free RPMI 1640 medium was added. NIR light (690 nm) was irradiated to cancer cells with an ML7710 laser system (Modulight, Tampere, Finland) at a power density of 150 mW/cm^2. One hour after NIR-PIT, the cells were collected with trypsin, and stained with propidium iodide (PI, 1 μg/mL) at room temperature for 5 minutes, and then assessed for PI positivity on a BD FACSCalibur (BD Biosciences) using CellQuest software (BD Biosciences) using FlowJo software (FlowJo LLC). To assess cell viability, cell proliferation was evaluated by 3-(4,5-Dimethyl-2-thiazolyl)-2,5-diphenyl-2H-tetrazolium bromide (MTT) assay. Cells were incubated and treated, as described above. One hour after NIR-PIT, the medium was removed and 500 μl of MTT reagent (SIGMA Aldrich; 0.5 mg/ml) was added to each well. After 1 hour incubation, the supernatant was removed and 500 μL of 2-propanol was added to each well to dissolve the crystal formazan dye. After transferring 100 μL of the supernatant to 96 well plate each, absorbance was measured at 570 nm on a microplate reader (Synergy™ H1). For relative quantification, the value of absorbance in each group was normalized to that in the control group.
Background: Tetrazolium dyes change colour on reduction, which living cells bring about.

For series [7], the system named is mEERL-hEGFR tumors. Set-up: tumor volume: dose or concentration left out as unconfirmed.
Protocol: The lower part of the body of the mice was shaved before NIR light irradiation and image analysis. Tumors were established via subcutaneous injection of 1×10^6 cells in the right or both side of dorsal flank for each model. Mice with tumors reaching approximately 50-100 mm^3 in volume were used for the experiments. Mice were monitored each day, and tumor volume (tumor volume=length×width^2×0.5) was measured twice a week until the tumor volume reached 2,000 mm^3, whereupon the mice were euthanized with inhalation of carbon dioxide gas. In a bilateral model, the mice were euthanized when either tumor reached its humane endpoint. Tumor disappearance for 4 weeks or longer after treatment was defined as complete remission.
The mixed antibody/APC was injected 6 days after inoculation of cancer cells into C57BL/6 mice. Twenty-four hours after administration, NIR light (690 nm, 150 mW/cm^2) was irradiated to tumors at 50 J/cm^2 in all groups. The surface of the mouse other than the tumor was covered with aluminum foil. […] In the bilateral model, NIR light (690 nm, 150 mW/cm^2) was given only to right-sided tumors at 50 J/cm^2 and the remainder of the mouse (including the left-sided tumor) was covered with aluminum foil during irradiation.
Series [8] deals with mEERL-hEGFR tumors. Description: Histologic analysis (H-E staining) 1 hour after NIR-PIT. Format: in vivo, C57BL/6 mice. The conditions noted are these: tumors harvested 1 hour after light exposure. The source says: Tumors from mEERL-hEGFR, MC38-luc, and LLC tumors were harvested, formalin-fixed and paraffin-embedded, and sectioned at […]. Following standard hematoxylin and eosin (HE) staining, bright-light photomicrographs were obtained using Mantra Quantitative Pathology Workstation (PerkinElmer).

Setting [9] is: CD44-targeted NIR-PIT with L-NaAA.
[10] abbreviates: with or without L-NaAA injection.
Setting [11] is: 1 day after CD44-targeted NIR-PIT.

Protocol for A431 GFP-luc cells: (§3) A431 GFP-luc or MDAMB468 GFP-luc cells (4×10^5) were seeded into 12-well plates, and incubated for 24 hours, and then exposed to media containing panitumumab-IR700 (10 μg mL^−1) for 1 hour at 37° C. […] NIR light (690 nm, 150 mW cm^−2, 1 or 2 J cm^−2 for A431 GFP-luc, 20 J cm^−2 for MDAMB468 GFP-luc) was irradiated to cancer cells. For flow cytometric analyses, the cells were collected with trypsin one hour after NIR light exposure. Cells were then stained with propidium iodide (PI, 1 μg mL^−1) at RT for 5 minutes. The fluorescence of the cells was then analyzed with a flow cytometer (FACSCalibur, BD Biosciences, San Jose, CA, USA) and FlowJo software (BD Biosciences).
Protocol for LL2-luc tumor: Tumors were established in mice by administration of 5×10^5 LL2 cells s.c. Four days later, IL15 (1 ug i.p.) was administered, followed one day later with anti-PD-L1-IR700 (or vehicle control), followed with or without NIR light (50 J/cm2) another day later.
Protocol for MDAMB468 GFP-luc cells: as §3
Protocol for MOC2-luc tumors: as §2

As for `Oc1cccc(-c2c3nc(c(-c4cccc(O)c4)c4ccc([nH]4)c(-c4cccc(O)c4)c4nc(c(-c5cccc(O)c5)c5ccc2[nH]5)CC4)C=C3)c1` [Foscan®, meta-tetrahydroxyphenylchlorin], the extinction coefficient in series [1] is 22000 M⁻¹ cm⁻¹.

For `O=C1O[C@H]([C@@H](O)CO)C([O-])=C1O.[Na+]` [L-NaAA, L-sodium ascorbate], the values for the body weight result in the series with MOC2-luc tumors (setting [9]), in the series with MC38-luc tumors [3] (NIR-PIT with vs without L-NaAA) and with LL/2-luc tumors (setting [9]) were “no significant difference in body weight was detected”, “No significant difference in body weight” and “no significant difference in body weight was detected”, respectively. For the same compound, the “antitumor effects of CD44-targeted NIR-PIT (BLI)” value with MOC2-luc tumors (with L-NaAA) and with LL/2-luc tumors (with L-NaAA) was “not changed” throughout. Further, the “edema formation 1 day after NIR-PIT” value with MOC2-luc tumors (setting [10]), in the series on MC38-luc tumors [3] (setting [10]) and in the series with LL/2-luc tumors (setting [10]) was “no edema was detected” in each case. The “cytotoxicity of Pan-PIT in the presence of NaN3” value (shortened to “cytotoxicity of Pan-PIT”) in the series with MDAMB468 GFP-luc cells was “restored cytotoxicity of Pan-PIT suppressed by NaN3”. Also, the edema formation result in the series on MC38-luc tumors [2] (1 day after CTLA4-targeted NIR-PIT) is “suppressed both macroscopically and by MRI”. The “BLI intensity by day 6 post NIR-PIT” value with MC38-luc tumors [2] (CTLA4-IR700 50 μg, NIR 50 J cm-2, L-NaAA 80 mg mouse-1 i.p.) is “no difference was observed between the two groups”. Moreover, the ROS entry in the series on MC38-luc tumors [2] (CTLA4-targeted NIR-PIT with vs without L-NaAA) is given as “higher ROS was also detected in the NIR-PIT without L-NaAA group”. Moreover, the “body weight the day after NIR-PIT” value in the series with MC38-luc tumors [2] (NIR-PIT with L-NaAA group) is “significant lower weight”. In addition, the “CTLA4hi cells among total live cells” value with MC38-luc tumors [2] (three hours after CTLA4-targeted NIR-PIT) was “selectively depleted in both NIR-PIT with and without L-NaAA groups”. Besides, the “efficacy of pan-PIT (BLI)” value in the series on A431 GFP-luc tumor is “did not affect the efficacy of pan-PIT”. Besides, in the series with MC38-luc tumors [3] (setting [11]), the “edema on T2WI fat-sat MRI” value was “minimal edema was observed just around the treated tumors”. Moreover, the “high signal intensity area on T2WI fat-sat images” value in the series on MC38-luc tumors [3] (setting [11]) was “significantly larger in the group treated without L-NaAA”. The “ROS (chemiluminescence imaging with L-012)” value with MC38-luc tumors [3] (CD44-targeted NIR-PIT with vs without L-NaAA) is “significantly lower intensity (lower ROS) on CLI”. Besides, the “tumor growth (BLI)” value with MC38-luc tumor is given as “not to affect tumor growth”.

For `N[C@@H](CS)C(=O)O` [L-cysteine], the “cytotoxicity of Pan-PIT” value in the series with A431 GFP-luc cells was “could not reverse the effects of NaN3”. In addition, the “cytotoxic damage of Pan-PIT, low concentration of reducing agent” value in the series on A431 GFP-luc cells (L-NaAA low or pharmacological concentrations, L-cysteine 0.001 mM) is reported as “slightly enhanced the cytotoxic damage”. Besides, the “cytotoxic damage of Pan-PIT, high concentration of reducing agent” value with A431 GFP-luc cells (L-NaAA over 1 mM, L-cysteine 0.1 mM or higher) is listed as “compromised the cytotoxicity”.

Turning to `C=Cc1c(C)c2cc3nc(c(CC(=O)N[C@@H](CC(=O)[O-])C(=O)[O-])c4[nH]c(cc5nc(cc1[nH]2)C(C)=C5CC)c(C)c4C(=O)[O-])[C@@H](CCC(=O)[O-])[C@@H]3C.[Na+].[Na+].[Na+].[Na+]` [NPe6/Laserphyrin®, mono-L-aspartylchlorin e6], the extinction coefficient in series [1] was 40000 M⁻¹ cm⁻¹.

With `[N-]=[N+]=[N-]` [NaN3, Sodium azide, reference compound], in the series on A431 GFP-luc cells, the “cytotoxicity of Pan-PIT” value is “suppression of NIR-PIT cytotoxicity”. Further, the “ligand cleavage (remaining IR700)” value in [4] is on record as “ligand cleavage decreased”.

Turning to `C[Si](C)(CCC[N+](CCCS(=O)(=O)O)(CCCS(=O)(=O)O)CCCS(=O)(=O)O)O[Si]1(O[Si](C)(C)CCC[N+](CCCS(=O)(=O)O)(CCCS(=O)(=O)O)CCCS(=O)(=O)O)n2c3c4ccccc4c2N=C2N=C(N=c4c5ccccc5c(n41)=NC1=NC(=N3)c3ccccc31)c1ccccc12` [Pc 3, Bis{3-[Tris(3-Sulfopropyl)]Ammoniopropyldimethylsilvloxide} Silicon Phthalocyanine], the “solubility of Pc 3 after light exposure” value in series [5] is “dramatically changed its solubility”.

For IL-15: immunoactivator interleukin, in the series on LL2-luc tumor, the survival result is “increased survival” and the tumor volume result was “substantially reduced tumor volume”.

As to Ipilimumab: anti-CTLA4 antibody, the “patients with gastrointestinal symptoms (irAE)” value in [6] is given as “about 40%”.

Take Photofrin®: the extinction coefficient in series [1] was 1200 M⁻¹ cm⁻¹.

As for pan-IR700, the “cancer cell death (incorporation of propidium iodine and MTT assay)” value with mEERL-hEGFR cells (APC 10 μg/mL 1 h, NIR light 690 nm, read 1 h after NIR-PIT) is “cancer cell death was induced by NIR-PIT in an NIR light-dose dependent manner”. Moreover, in the series on mEERL-hEGFR cells (without NIR light), the “cell viability, APC alone” value was “Neither NIR light alone nor panitumumab IR700 alone induced significant alterations in cell viability”.

Turning to panitumumab NIR-PIT, in the series on mEERL-hEGFR tumors [7] (mixed antibody/APC i.v., NIR light 50 J/cm^2 once 1 day later), the tumor volume result is on record as “not significantly decreased”. In the series on mEERL-hEGFR tumors [7] (n=12-13), the “mice in which the tumor was cleared” value was 1/12. In addition, the “histologic change of tumor cells (H-E staining)” value in the series with mEERL-hEGFR tumors [8] was “swelling and vacuolation of the tumor cell”.
